From the supplement of paper PMC10307832

Assays:
Assay in all cases: relative viability (nuclei count vs DMSO), 5 days (fraction); higher = more cells survive
[1] = compound: CN(c1ncccc1CNc1nc(Nc2ccc3c(c2)CC(=O)N3)ncc1C(F)(F)F)S(C)(=O)=O + C[C@@H](Oc1cc(-c2cnn(C3CCNCC3)c2)cnc1N)c1c(Cl)ccc(F)c1Cl [Crizotinib] (partner 1 µM)
In short: (§1)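 Nuclei were stained with Hoechst during a one-step fixation (final 0.05% Triton X-100, 1% formaldehyde, 1 ug/ml Hoechst) carried out 5 days after dosing, then counted on 4× images. The cells, lung cancer lines in 1536-well plates, had been dosed by pin tool the day after seeding with one drug alone or a fixed anchor-drug dose plus five library-drug doses (not always all listed) in √10 steps. Relative viability is the nuclei count in treated wells divided by that in vehicle wells, and each value is the median of duplicate plates.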

[2] = compound: CN(c1ncccc1CNc1nc(Nc2ccc3c(c2)CC(=O)N3)ncc1C(F)(F)F)S(C)(=O)=O + CC(=O)Nc1cccc(-n2c(=O)n(C3CC3)c(=O)c3c(Nc4ccc(I)cc4F)n(C)c(=O)c(C)c32)c1 [Trametinib] (partner 0.02 µM)
In short: as §1

[3] = compound: CN(c1ncccc1CNc1nc(Nc2ccc3c(c2)CC(=O)N3)ncc1C(F)(F)F)S(C)(=O)=O + N=C(N)NC(=N)NCCc1ccccc1 [Phenformin] (partner 250 µM)
In short: as §1

[4] = compound: CN(c1ncccc1CNc1nc(Nc2ccc3c(c2)CC(=O)N3)ncc1C(F)(F)F)S(C)(=O)=O + COc1cccc2cc(-c3nc([C@H]4CC[C@H](C(=O)O)CC4)n4ncnc(N)c34)[nH]c12 [OSI-027] (partner 0.5 µM)
In short: as §1

Cell Line | relative viability ([1]; first compound 0.01 µM) | relative viability ([1]; first compound 0.03162 µM) | relative viability ([1]; first compound 0.1 µM) | relative viability ([1]; first compound 0.3162 µM) | relative viability ([1]; first compound 1 µM) | relative viability ([2]; first compound 0.01 µM) | relative viability ([2]; first compound 0.03162 µM) | relative viability ([2]; first compound 0.1 µM) | relative viability ([2]; first compound 0.3162 µM) | relative viability ([2]; first compound 1 µM) | relative viability ([3]; first compound 0.01 µM) | relative viability ([3]; first compound 0.03162 µM) | relative viability ([3]; first compound 0.1 µM) | relative viability ([3]; first compound 0.3162 µM) | relative viability ([3]; first compound 1 µM) | relative viability ([4]; first compound 0.01 µM) | relative viability ([4]; first compound 0.03162 µM) | relative viability ([4]; first compound 0.1 µM) | relative viability ([4]; first compound 0.3162 µM) | relative viability ([4]; first compound 1 µM)
201T | 1.05 | 0.991 | 1.02 | 0.975 | 1 | 0.709 | 0.712 | 0.664 | 0.669 | 0.67 | 0.43 | 0.394 | 0.445 | 0.443 | 0.437 | 0.658 | 0.702 | 0.741 | 0.663 | 0.648
A-427 | 0.916 | 0.964 | 0.951 | 0.783 | 0.725 | 0.722 | 0.791 | 0.67 | 0.821 | 0.741 | 0.337 | 0.315 | 0.353 | 0.269 | 0.291 | 0.472 | 0.553 | 0.504 | 0.44 | 0.475
ABC-1 | 1.12 | 1.21 | 1.09 | 1.15 | 1.17 |  |  |  |  |  | 0.214 | 0.238 | 0.26 | 0.279 | 0.229 | 0.424 | 0.537 | 0.432 | 0.498 | 0.499
BEN | 0.825 | 0.949 | 0.813 | 0.848 | 0.848 | 0.954 | 1.19 | 0.92 | 1.02 | 0.869 | 0.253 | 0.281 | 0.268 | 0.336 | 0.246 | 0.294 | 0.293 | 0.276 | 0.304 | 0.284
CAL-12T | 0.619 | 0.538 | 0.576 | 0.566 | 0.593 | 0.363 | 0.304 | 0.32 | 0.358 | 0.357 | 0.628 | 0.523 | 0.536 | 0.512 | 0.444 | 0.725 | 0.874 | 0.58 | 0.719 | 0.514
COR-L23 | 0.653 | 0.649 | 0.7 | 0.594 | 0.486 | 0.563 | 0.66 | 0.57 | 0.605 | 0.516 | 0.464 | 0.54 | 0.416 | 0.424 | 0.332 | 0.782 | 0.722 | 0.681 | 0.756 | 0.642
COR-L 105 | 0.64 | 0.649 | 0.779 | 0.747 | 0.47 | 0.459 | 0.419 | 0.453 | 0.479 | 0.445 | 0.46 | 0.493 | 0.45 | 0.418 | 0.492 | 0.668 | 0.784 | 0.747 | 0.615 | 0.583
Calu-6 | 0.809 | 0.828 | 0.774 | 0.725 | 0.546 |  |  |  |  |  |  |  |  |  |  |  |  |  |  | 
ChaGo-K-1 | 1.1 | 1.21 | 1.08 |  | 1.05 | 0.959 | 0.923 | 0.999 | 0.912 | 0.849 | 0.489 | 0.444 | 0.461 | 0.489 | 0.404 | 0.537 | 0.566 | 0.544 | 0.538 | 0.659
EKVX | 0.895 | 0.828 | 0.98 | 0.801 | 0.789 | 0.355 | 0.374 | 0.244 | 0.319 | 0.262 | 0.251 | 0.236 | 0.24 | 0.231 | 0.24 | 0.757 | 0.711 | 0.618 | 0.685 | 0.614
EMC-BAC-2 | 0.798 | 0.817 | 0.717 | 0.78 | 0.778 | 0.872 | 0.887 | 0.855 | 0.841 | 0.722 | 0.628 | 0.568 | 0.496 | 0.551 | 0.452 | 0.377 | 0.364 | 0.339 | 0.418 | 0.371
EPLC-272H | 0.912 | 0.873 | 0.888 | 0.968 | 0.93 | 0.288 | 0.294 | 0.247 | 0.319 | 0.277 | 0.307 | 0.309 | 0.339 | 0.327 | 0.345 | 0.276 | 0.294 | 0.305 | 0.344 | 0.279
H3255 | 0.945 | 1.03 | 0.832 | 0.663 | 0.839 | 0.688 | 0.675 | 0.549 | 0.601 | 0.576 | 0.34 | 0.339 | 0.316 | 0.384 | 0.342 | 0.606 | 0.611 | 0.488 | 0.568 | 0.598
HARA | 0.938 | 0.938 | 1 | 1.02 | 0.698 | 0.816 | 0.63 | 0.439 | 0.63 | 0.723 | 0.449 | 0.5 | 0.532 | 0.432 | 0.356 | 0.54 | 0.481 | 0.524 | 0.612 | 0.55
HCC-15 | 0.821 | 0.746 | 0.739 | 0.707 | 0.6 | 0.344 | 0.378 | 0.35 | 0.35 | 0.336 | 0.492 | 0.501 | 0.463 | 0.384 | 0.405 | 0.748 | 0.699 | 0.675 | 0.626 | 0.527
HCC-44 | 0.876 | 0.893 | 0.798 | 0.788 | 0.749 | 1.02 | 1.05 | 0.959 | 1.09 | 1.12 | 0.193 | 0.171 | 0.297 | 0.239 | 0.316 | 0.575 | 0.491 | 0.496 |  | 0.703
HCC-78 | 0.379 | 0.342 | 0.305 | 0.29 | 0.319 | 0.681 | 0.864 | 0.753 | 0.641 | 0.507 | 0.67 | 0.662 | 0.563 | 0.566 | 0.573 | 0.378 | 0.399 | 0.36 | 0.421 | 0.353
